From US20260274807A1 (University of Health Sciences and Pharmacy in St. Louis, priority 2023, published 2026) come the findings set out here.

One assay has as its target T1, ERRα (Homo sapiens, UniProt P11474).
T1 construct: expressed in transfected cells; host or cells: HEK293
T1 sequence (P11474 1-423): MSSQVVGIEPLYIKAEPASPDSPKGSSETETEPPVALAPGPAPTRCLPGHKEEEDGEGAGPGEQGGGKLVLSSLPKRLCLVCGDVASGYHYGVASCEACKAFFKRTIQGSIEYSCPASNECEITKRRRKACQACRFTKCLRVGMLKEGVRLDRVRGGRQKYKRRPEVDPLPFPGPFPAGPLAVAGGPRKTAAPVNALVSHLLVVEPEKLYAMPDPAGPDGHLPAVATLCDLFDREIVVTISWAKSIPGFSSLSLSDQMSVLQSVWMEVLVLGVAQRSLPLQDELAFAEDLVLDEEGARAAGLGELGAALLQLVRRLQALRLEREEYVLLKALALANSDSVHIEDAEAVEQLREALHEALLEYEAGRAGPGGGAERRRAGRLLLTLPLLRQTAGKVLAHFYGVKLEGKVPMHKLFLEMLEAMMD
Description: ERRE luciferase reporter assay in HEK293 cells transfected with pcDNA3.1 ERRα. The format is cell-based. Further details: key to EC50 (ERRα) μM: * <1 μM; ** 1-5 μM; *** >5 μM; i.a. (inactive). As to conditions: HEK293 cells transfected with ERRE reporter construct and pcDNA3.1 ERRα; compound for 24 hours; luciferase activity. On the technique in general: In a reporter assay the amount or activity of a reporter protein is the signal.

The target in the next assay is T2, ERRγ (Homo sapiens, UniProt P62508).
T2 construct: expressed in transfected cells; host or cells: HEK293
T2 sequence (P62508 1-458): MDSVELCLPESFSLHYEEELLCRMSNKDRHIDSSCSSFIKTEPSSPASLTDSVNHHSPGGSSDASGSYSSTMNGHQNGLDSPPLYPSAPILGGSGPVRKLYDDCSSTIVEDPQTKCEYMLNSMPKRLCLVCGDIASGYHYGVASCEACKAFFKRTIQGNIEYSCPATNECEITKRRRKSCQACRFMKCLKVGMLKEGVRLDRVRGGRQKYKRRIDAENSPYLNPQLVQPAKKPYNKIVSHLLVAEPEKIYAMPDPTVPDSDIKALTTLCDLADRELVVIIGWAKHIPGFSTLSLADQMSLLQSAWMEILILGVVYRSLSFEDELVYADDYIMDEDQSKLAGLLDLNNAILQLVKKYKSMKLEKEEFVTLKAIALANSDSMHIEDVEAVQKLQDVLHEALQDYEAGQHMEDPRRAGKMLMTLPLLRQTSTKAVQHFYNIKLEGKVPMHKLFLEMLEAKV
Description: ERRE luciferase reporter assay in HEK293 cells transfected with pcDNA3.1 ERRγ. Format: cell-based. Also on record: key to EC50 (ERRγ) μM: * <1 μM; ** 1-5 μM; *** >5 μM; i.a. (inactive). Particulars: HEK293 cells transfected with ERRE reporter construct and pcDNA3.1 ERRγ; compound for 24 hours; luciferase activity.

In the case of `O=[N+]([O-])c1ccccc1Cc1nnc(-c2ccc(C(F)(F)F)cc2)s1` [Entry 1028, 2-(2-nitrobenzyl)-5-(4-(trifluoromethyl)phenyl)-1,3,4-thiadiazole], the EC50 on ERRα and at ERRγ was 1000 to 5000 nM in each case.

`Cc1ccc(-c2nnc(-c3ccc(C)o3)s2)cc1` [Entry 1029, 2-(5-methylfuran-2-yl)-5-(p-tolyl)-1,3,4-thiadiazole]: the EC50 (as a rule, the concentration at which the effect is half-maximal) at ERRα is 1000 to 5000 nM; on ERRγ, under 1000 nM.

In the case of `Nc1ccc(-c2nnc(-c3ccccc3)s2)cc1` [Entry 1030, 4-(5-phenyl-1,3,4-thiadiazol-2-yl)aniline], the EC50 at ERRα and at ERRγ was under 1000 nM each time.

Consider `Cc1ccc(-c2nnc(-c3cccs3)s2)cc1` [Entry 1031, 2-(thiophen-2-yl)-5-(p-tolyl)-1,3,4-thiadiazole], for which the EC50 on ERRα and at ERRγ was under 1000 nM in each case.

Take `O=C(Nc1nnc(-c2ccccc2)s1)c1ccccc1` [Entry 1032, N-(5-phenyl-1,3,4-thiadiazol-2-yl)benzamide]: at ERRα, the “EC50 (ERRα) μM” value is recorded as “i.a”. Further, the “EC50 (ERRγ) μM” value on ERRγ is on record as “i.a”.

For `COc1ccc(-c2nnc(NC(=O)c3ccccc3)s2)cc1` [Entry 1033, N-(5-(4-methoxyphenyl)-1,3,4-thiadiazol-2-yl)benzamide], the “EC50 (ERRα) μM” value on ERRα is listed as “i.a”. On ERRγ, the “EC50 (ERRγ) μM” value is listed as “i.a”.

With `Cc1ccc(C(=O)Nc2nnc(-c3ccccc3Cl)s2)cc1` [Entry 1034, N-(5-(2-chlorophenyl)-1,3,4-thiadiazol-2-yl)-4-methylbenzamide], on ERRα, the “EC50 (ERRα) μM” value was “i.a”. Besides, the “EC50 (ERRγ) μM” value at ERRγ is listed as “i.a”.

With `COc1ccc([N+](=O)[O-])c(-c2nnc(-c3ccccc3)s2)c1` [Entry 1035, 2-(5-methoxy-2-nitrophenyl)-5-phenyl-1,3,4-thiadiazole], the EC50 at ERRα and at ERRγ was 1000 to 5000 nM each time.

Regarding `COc1ccc(-c2nnc(-c3ccccc3)s2)c([N+](=O)[O-])c1` [Entry 1036, 2-(4-methoxy-2-nitrophenyl)-5-phenyl-1,3,4-thiadiazole], the EC50 on ERRα and at ERRγ was under 1000 nM in each case.

With `O=[N+]([O-])c1cc(Br)ccc1-c1nnc(-c2ccccc2)s1` [Entry 1037, 2-(4-bromo-2-nitrophenyl)-5-phenyl-1,3,4-thiadiazole], the EC50 on ERRα was 1000 to 5000 nM; at ERRγ, under 1000 nM.

With `c1ccc(Cc2nnc(-c3ccccc3)s2)cc1` [Entry 1038, 2-benzyl-5-phenyl-1,3,4-thiadiazole], the EC50 on ERRα and on ERRγ was 1000 to 5000 nM throughout.

Turning to `c1ccc(-c2ccc(Cc3nnc(-c4ccccc4)s3)cc2)cc1` [Entry 1039, 2-([1,1′-biphenyl]-4-ylmethyl)-5-phenyl-1,3,4-thiadiazole], the EC50 at ERRα and on ERRγ was over 5000 nM each time.

As for `Cc1cccc(-c2nnc(-c3ccccc3Cl)s2)c1` [Entry 1041, 2-(2-chlorophenyl)-5-(m-tolyl)-1,3,4-thiadiazole], the EC50 was over 5000 nM on ERRα and under 1000 nM on ERRγ.

Regarding `Cc1ccc(-c2nnc(-c3ccc4ccccc4n3)s2)cc1` [Entry 1042, 2-(quinolin-2-yl)-5-(p-tolyl)-1,3,4-thiadiazole], the EC50 on ERRα was over 5000 nM; on ERRγ, under 1000 nM.

With `Cc1ccc(-c2nnc(-c3cccc4ccccc34)s2)cc1` [Entry 1043, 2-(naphthalen-1-yl)-5-(p-tolyl)-1,3,4-thiadiazole], the EC50 at ERRα and on ERRγ was under 1000 nM throughout.

As to `Cc1ccc(-c2nnc(-c3ccc4ccccc4c3)s2)cc1` [Entry 1044, 2-(naphthalen-2-yl)-5-(p-tolyl)-1,3,4-thiadiazole], the EC50 on ERRα is over 5000 nM; at ERRγ, under 1000 nM.

Turning to `Cc1ccc(-c2nnc(-c3cccc(Cl)c3)s2)cc1` [Entry 1045, 2-(3-chlorophenyl)-5-(p-tolyl)-1,3,4-thiadiazole], the EC50 at ERRα and at ERRγ was under 1000 nM in each case.

Consider `Oc1ccc(-c2nnc(-c3ccc4ccccc4c3)s2)cc1` [Entry 1046, 4-(5-(naphthalen-2-yl)-1,3,4-thiadiazol-2-yl)phenol], for which the EC50 at ERRα and on ERRγ was under 1000 nM each time.

`Oc1ccc(-c2nnc(-c3ccc4ccccc4n3)s2)cc1` [Entry 1047, 4-(5-(quinolin-2-yl)-1,3,4-thiadiazol-2-yl)phenol]: the “EC50 (ERRα) μM” value at ERRα is “i.a”. Further, the “EC50 (ERRγ) μM” value at ERRγ is “i.a”.

With `Cc1ccc(-c2nnc(-c3ccc(Cl)cc3)s2)cc1` [Entry 1048, 2-(4-chlorophenyl)-5-(p-tolyl)-1,3,4-thiadiazole], the EC50 at ERRα and on ERRγ was under 1000 nM throughout.

Consider `COC(=O)c1cccc(-c2nnc(-c3ccccc3Cl)s2)c1` [Entry 1050, methyl 3-(5-(2-chlorophenyl)-1,3,4-thiadiazol-2-yl)benzoate], for which the EC50 at ERRα and at ERRγ was under 1000 nM each time.

For the compound `COC(=O)c1ccc(-c2nnc(-c3ccccc3Cl)s2)cc1` [Entry 1051, methyl 4-(5-(2-chlorophenyl)-1,3,4-thiadiazol-2-yl)benzoate], the concentration for a half-maximal effect (EC50) at ERRα and at ERRγ was under 1000 nM each time.

In the case of `CCCCOc1ccc(-c2nnc(-c3ccccc3Cl)s2)cc1` [Entry 1052, 2-(4-butoxyphenyl)-5-(2-chlorophenyl)-1,3,4-thiadiazole], the EC50 on ERRα and on ERRγ was under 1000 nM in each case.

On to `Cc1ccc(-c2nnc(-c3cnn(-c4ccccc4)c3)s2)cc1` [Entry 1053, 2-(1-phenyl-1H-pyrazol-4-yl)-5-(p-tolyl)-1,3,4-thiadiazole], for which the values for the EC50 on ERRα and on ERRγ were over 5000 nM and under 1000 nM, respectively.

Consider `Cc1ccc(-c2nnc(-c3ccc(B(O)O)cc3)s2)cc1` [Entry 1055, (4-(5-(p-tolyl)-1,3,4-thiadiazol-2-yl)phenyl)boronic acid], for which the EC50 at ERRα and on ERRγ was under 1000 nM throughout.

As for `Cc1ccc(-c2nnc(-c3cccc4ncccc34)s2)cc1` [Entry 1058, 2-(quinolin-5-yl)-5-(p-tolyl)-1,3,4-thiadiazole], the EC50 at ERRα and at ERRγ was under 1000 nM in each case.

On to `Clc1ccccc1-c1nnc(-c2cccc3ncccc23)s1` [Entry 1059, 2-(2-chlorophenyl)-5-(quinolin-5-yl)-1,3,4-thiadiazole], for which the EC50 at ERRα and at ERRγ was under 1000 nM each time.

Turning to `Cc1ccc(-c2nnc(-c3nccs3)s2)cc1` [Entry 1060, 2-(thiazol-2-yl)-5-(p-tolyl)-1,3,4-thiadiazole], the EC50 at ERRα and on ERRγ was under 1000 nM each time.

With `Clc1ccccc1-c1nnc(-c2nccs2)s1` [Entry 1061, 2-(2-chlorophenyl)-5-(thiazol-2-yl)-1,3,4-thiadiazole], the EC50 at ERRα and on ERRγ was over 5000 nM throughout.

As to `FC(F)(F)c1ccc(-c2nnc(-c3cccc4ncccc34)s2)cc1` [Entry 1062, 2-(quinolin-5-yl)-5-(4-(trifluoromethyl)phenyl)-1,3,4-thiadiazole], the EC50 on ERRα and at ERRγ was under 1000 nM in each case.

Turning to `COC(=O)c1cccc(-c2nnc(-c3ccc(C(F)(F)F)cc3)s2)c1` [Entry 1064, methyl 3-(5-(4-(trifluoromethyl)phenyl)-1,3,4-thiadiazol-2-yl)benzoate], the results for the EC50 on ERRα and at ERRγ were over 5000 nM and 1000 to 5000 nM, respectively.

On to `COc1ccc(-c2nnc(-c3ccc(C(F)(F)F)cc3)s2)cn1` [Entry 1071, 2-(6-methoxypyridin-3-yl)-5-(4-(trifluoromethyl)phenyl)-1,3,4-thiadiazole], for which the results for the EC50 on ERRα and at ERRγ were under 1000 nM and 1000 to 5000 nM, respectively.

As to `Cc1cccc(-c2nnc(-c3cccc(C(F)(F)F)c3)s2)n1` [Entry 1073, 2-(6-methylpyridin-2-yl)-5-(3-(trifluoromethyl)phenyl)-1,3,4-thiadiazole], the EC50 was over 5000 nM on ERRα and 1000 to 5000 nM at ERRγ.

Take `FC(F)(F)c1cccc(-c2nnc(-c3cccnc3Cl)s2)c1` [Entry 1074, 2-(2-chloropyridin-3-yl)-5-(3-(trifluoromethyl)phenyl)-1,3,4-thiadiazole]: the EC50 on ERRα and at ERRγ was 1000 to 5000 nM in each case.

Turning to `Cc1ccc(-c2nnc(-c3scnc3C)s2)cc1` [Entry 1080, 2-(4-methylthiazol-5-yl)-5-(p-tolyl)-1,3,4-thiadiazole], the EC50 at ERRα and at ERRγ was under 1000 nM in each case.

Regarding `Cc1ccc(-c2nnc(-c3cncs3)s2)cc1` [Entry 1082, 2-(thiazol-5-yl)-5-(p-tolyl)-1,3,4-thiadiazole], the EC50 at ERRα and at ERRγ was under 1000 nM in each case.
